Here are results for 33 compounds from patent US9216173B2, “2-Pyridyl carboxamide-containing spleen tyrosine kinase (SYK) inhibitors” (Merck Sharp & Dohme Corp., priority 2011, dated 2015).

Where only a bound is given, the exact number is not on record here.

The first test has as its target T1, recombinant human GST-SYK (Homo sapiens, UniProt P43405).
T1 construct: purchased Carna Biosciences 08-176
Put plainly: Homogeneous Time-Resolved Fluorescence (HTRF) assay for the recombinant human Syk enzyme. Type of test: biochemical. The conditions noted are these: GST-hSYK 5 pM, ATP 25 μM, 10-dose titration 10 μM to 0.508 nM; read-out: IC50. In a few lines:
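GST-hSYK fusion phosphorylates a peptide for 45 min at room temperature. Quenched with EDTA buffer containing 2 nM Eu-anti-phosphotyrosine antibody and 70 nM SA-APC. HTRF signal read after 30 min.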
A general note: Time-resolved FRET reads energy transfer from a long-lived donor to a nearby acceptor.
Take `Cc1nc(C)c(Cl)c(Nc2cc(N[C@@H]3CCCC[C@@H]3N)cnc2C(N)=O)n1` [Example 1.126, 5-{[(1R,2S)-2-aminocyclohexyl]amino}-3-[(5-chloro-2,6-dimethylpyrimidin-4-yl)amino]pyridine-2-carboxamide]: the IC50 is 1300 nM. On to `Cc1nc(Nc2cc(N[C@@H]3CCCC[C@@H]3N)cnc2C(N)=O)ccc1-c1ccccc1` [Example 3.2, 5-{[(1R,2S)-2-aminocyclohexyl]amino}-3-[(6-methyl-5-phenylpyridin-2-yl)amino]pyridine-2-carboxamide], for which the IC50 was 3.9 nM.

Staying with this test, now noted: GST-hSYK 5 pM, ATP 25 μM, 10-dose titration 10 μM to 0.508 nM; read-out: rhSYK Activity (IC50 rating).
Consider `Cc1cc(Nc2cc(N[C@@H]3CCCC[C@@H]3N)cnc2C(N)=O)nc(-c2cnn3c2CCC3)c1` [Example 1.115, 5-{[(1R,2S)-2-aminocyclohexyl]amino}-3-{[6-(5,6-dihydro-4H-pyrrolo[1,2-b]pyrazol-3-yl)-4-methylpyridin-2-yl]amino}pyridine-2-carboxamide], for which the IC50 is less than 10 nM. Turning to `CCC(C)(N)CNc1cnc(C(N)=O)c(Nc2cc(C)cc(C)n2)c1` (centres unmarked) [Example 1.117, 5-[(2-amino-2-methylbutyl)amino]-3-[(4,6-dimethylpyridin-2-yl)amino]pyridine-2-carboxamide], the 50% inhibitory concentration (IC50) is less than 10 nM. Same read-out and setting: then `Cc1cc(C)nc(Nc2cc(NCC(N)C3CC3)cnc2C(N)=O)c1` (centres unmarked) [Example 1.118, 5-[(2-amino-2-cyclopropylethyl)amino]-3-[(4,6-dimethylpyridin-2-yl)amino]pyridine-2-carboxamide], with less than 10 nM; and `CN1CCN(c2cccc(Nc3cc(N[C@@H]4CCCC[C@@H]4N)cnc3C(N)=O)n2)CC1` [Example 1.119, 5-{[(1R,2S)-2-aminocyclohexyl]amino}-3-{[6-(4-methylpiperazin-1-yl)pyridin-2-yl]amino}pyridine-2-carboxamide], with less than 10 nM. Turning to `CC(C)(O)COCc1cccc(Nc2cc(N[C@@H]3CCCC[C@@H]3N)cnc2C(N)=O)n1` [Example 1.120, 5-{[(1R,2S)-2-aminocyclohexyl]amino}-3-({6-[(2-hydroxy-2-methylpropoxy)methyl]pyridin-2-yl}amino)pyridine-2-carboxamide], the half-inhibitory concentration (IC50) is less than 10 nM. As for `Cc1cncc(Nc2cc(N[C@@H]3CCCC[C@@H]3N)cnc2C(N)=O)n1` [Example 1.121, 5-{[(1R,2S)-2-aminocyclohexyl]amino}-3-[(6-methylpyrazin-2-yl)amino]pyridine-2-carboxamide], the IC50 was less than 10 nM. Still for that read-out and setting: then `NC(=O)c1ncc(N[C@@H]2CCCC[C@@H]2N)cc1Nc1ccnc(-n2nccn2)n1` [Example 1.122, 5-{[(1R,2S)-2-aminocyclohexyl]amino}-3-{[2-(2H-1,2,3-triazol-2-yl)pyrimidin-4-yl]amino}pyridine-2-carboxamide], with less than 10 nM. Same read-out and setting: under `NC(=O)c1ncc(N[C@@H]2CCCC[C@@H]2N)cc1Nc1ccncn1` [Example 1.123, 5-{[(1R,2S)-2-aminocyclohexyl]amino}-3-(pyrimidin-4-ylamino)pyridine-2-carboxamide] stands 100 to 1000 nM. Consider `COc1cc(Nc2cc(N[C@@H]3CCCC[C@@H]3N)cnc2C(N)=O)nc(OC)n1` [Example 1.124, 5-{[(1R,2S)-2-aminocyclohexyl]amino}-3-[(2,6-dimethoxypyrimidin-4-yl)amino]pyridine-2-carboxamide], for which the half-maximal inhibitory concentration (IC50) was less than 10 nM. Still for that read-out and setting: then `Cc1cc(Nc2cc(N[C@@H]3CCCC[C@@H]3N)cnc2C(N)=O)nc(C)n1` [Example 1.125, 5-{[(1R,2S)-2-aminocyclohexyl]amino}-3-[(2,6-dimethylpyrimidin-4-yl)amino]pyridine-2-carboxamide], with less than 10 nM. `Cc1nc(C)c(Cl)c(Nc2cc(N[C@@H]3CCCC[C@@H]3N)cnc2C(N)=O)n1` [Example 1.126, 5-{[(1R,2S)-2-aminocyclohexyl]amino}-3-[(5-chloro-2,6-dimethylpyrimidin-4-yl)amino]pyridine-2-carboxamide]: the IC50 was in the range of 1000 to 10000 nM. On to `Cc1nc(Cl)cc(Nc2cc(N[C@@H]3CCCC[C@@H]3N)cnc2C(N)=O)n1` [Example 1.127, 5-{[(1R,2S)-2-aminocyclohexyl]amino}-3-[(6-chloro-2-methylpyrimidin-4-yl)amino]pyridine-2-carboxamide], for which the IC50 is less than 10 nM.

Consider `NC(=O)c1ncc(N[C@@H]2CCCC[C@@H]2N)cc1Nc1nc(Cl)ncc1F` [Example 1.128, 5-{[(1R,2S)-2-aminocyclohexyl]amino}-3-[(2-chloro-5-fluoropyrimidin-4-yl)amino]pyridine-2-carboxamide], for which the 50% inhibitory concentration (IC50) fell in the range of 10 to 100 nM. With `NC(=O)c1ncc(N[C@@H]2CCCC[C@@H]2N)cc1Nc1ccnc(C2CC2)n1` [Example 1.129, 5-{[(1R,2S)-2-aminocyclohexyl]amino}-3-[(2-cyclopropylpyrimidin-4-yl)amino]pyridine-2-carboxamide], the half-maximal inhibitory concentration (IC50) was less than 10 nM. Still for that read-out and setting: under `Cc1cc(C)nc(Nc2cc(N[C@@H]3CCOC[C@@H]3N)cnc2C(N)=O)c1` [Example 1.130, 5-{[(3R,4R)-3-aminotetrahydro-2H-pyran-4-yl]amino}-3-[(4,6-dimethylpyridin-2-yl)amino]pyridine-2-carboxamide] stands less than 10 nM. Same read-out and setting: then `COc1cc(C)nc(Nc2cc(N[C@@H]3CCOC[C@@H]3N)cnc2C(N)=O)c1` [Example 1.131, 5-{[(3R,4R)-3-aminotetrahydro-2H-pyran-4-yl]amino}-3-[(4-methoxy-6-methylpyridin-2-yl)amino]pyridine-2-carboxamide], with less than 10 nM. On to `CNC(=O)C(N)CNc1cnc(C(N)=O)c(Nc2cc(C)cc(C)n2)c1` (centres unmarked) [Example 2.1, 5-{[2-amino-3-(methylamino)-3-oxopropyl]amino}-3-[(4,6-dimethylpyridin-2-yl)amino]pyridine-2-carboxamide], for which the IC50 is 100 to 1000 nM. As to `Cc1nc(Nc2cc(NC[C@H](C)N)cnc2C(N)=O)ccc1Br` [Example 2.2, 5-{[(2S)-2-aminopropyl]amino}-3-[(5-bromo-6-methylpyridin-2-yl)amino]pyridine-2-carboxamide], the concentration for half-maximal inhibition (IC50) was less than 10 nM. On the same count and under the same terms, under `Cc1cc(C)nc(Nc2cc(NCC(N)C(F)F)cnc2C(N)=O)c1` (centres unmarked) [Example 2.4, 5-[(2-amino-3,3-difluoropropyl)amino]-3-[(4,6-dimethylpyridin-2-yl)amino]pyridine-2-carboxamide] stands 10 to 100 nM; under `Cc1cc(C)nc(Nc2cc(N[C@@H]3[C@H](N)CCCC3(F)F)cnc2C(N)=O)c1` [Example 2.5, 5-{[(1R,6R)-6-amino-2,2-difluorocyclohexyl]amino}-3-[(4,6-dimethylpyridin-2-yl)amino]pyridine-2-carboxamide], less than 10 nM; under `CSCC(N)CNc1cnc(C(N)=O)c(Nc2cc(C)cc(C)n2)c1` (centres unmarked) [Example 2.8, 5-{[2-amino-3-(methylsulfanyl)propyl]amino}-3-[(4,6-dimethylpyridin-2-yl)amino]pyridine-2-carboxamide], less than 10 nM.

In the case of `Cc1cc(C)nc(Nc2cc(NCC(N)C(=O)N(C)C)cnc2C(N)=O)c1` (centres unmarked) [Example 2.9, 5-{[2-amino-3-(dimethylamino)-3-oxopropyl]amino}-3-[(4,6-dimethylpyridin-2-yl)amino]pyridine-2-carboxamide], the IC50 fell in the range of 100 to 1000 nM.

`Cc1cc(C)nc(Nc2cc(NC3CCNCC3)cnc2C(N)=O)c1` [Example 2.10, 3-[(4,6-dimethylpyridin-2-yl)amino]-5-(piperidin-4-ylamino)pyridine-2-carboxamide]: the IC50 fell in the range of 100 to 1000 nM. Regarding `Cc1cc(C)nc(Nc2cc(NCC(N)Cc3ccccc3)cnc2C(N)=O)c1` (centres unmarked) [Example 2.12, 5-[(2-amino-3-phenylpropyl)amino]-3-[(4,6-dimethylpyridin-2-yl)amino]pyridine-2-carboxamide], the IC50 was in the range of 10 to 100 nM. On the same count and under the same terms, then `Cc1cc(C)nc(Nc2cc(NCC(N)CO)cnc2C(N)=O)c1` (centres unmarked) [Example 2.14, 5-[(2-amino-3-hydroxypropyl)amino]-3-[(4,6-dimethylpyridin-2-yl)amino]pyridine-2-carboxamide], with 10 to 100 nM; and `Cc1cc(C)nc(Nc2cc(NC3CC(N)C3)cnc2C(N)=O)c1` (centres unmarked) [Example 2.15, 5-[(3-aminocyclobutyl)amino]-3-[(4,6-dimethylpyridin-2-yl)amino]pyridine-2-carboxamide], with 10 to 100 nM; and `Cc1nc(Nc2cc(N[C@@H]3CCCC[C@@H]3N)cnc2C(N)=O)ccc1-c1cccc(C(O)C(F)F)c1` (stereo partly drawn) [Example 3.1, 5-{[(1R,2S)-2-aminocyclohexyl]amino}-3-({5-[3-(2,2-difluoro-1-hydroxyethyl)phenyl]-6-methylpyridin-2-yl}amino)pyridine-2-carboxamide], with less than 10 nM.

With `Cc1nc(Nc2cc(N[C@@H]3CCCC[C@@H]3N)cnc2C(N)=O)ccc1-c1ccccc1` [Example 3.2, 5-{[(1R,2S)-2-aminocyclohexyl]amino}-3-[(6-methyl-5-phenylpyridin-2-yl)amino]pyridine-2-carboxamide], the concentration for half-maximal inhibition (IC50) is less than 10 nM. Take `Cc1nc(Nc2cc(N[C@@H]3CCCC[C@@H]3N)cnc2C(N)=O)ccc1-c1cccc([N+](=O)[O-])c1` [Example 3.3, 5-{[(1R,2S)-2-aminocyclohexyl]amino}-3-{[6-methyl-5-(3-nitrophenyl)pyridin-2-yl]amino}pyridine-2-carboxamide]: the IC50 was less than 10 nM. Consider `COc1ccc(-c2ccc(Nc3cc(N[C@@H]4CCCC[C@@H]4N)cnc3C(N)=O)nc2C)cc1OC` [Example 3.4, 5-{[(1R,2S)-2-aminocyclohexyl]amino}-3-{[5-(3,4-dimethoxyphenyl)-6-methylpyridin-2-yl]amino}pyridine-2-carboxamide], for which the IC50 was less than 10 nM. `Cc1nc(Nc2cc(N[C@@H]3CCCC[C@@H]3N)cnc2C(N)=O)ccc1-c1ccc(C(=O)O)cc1` [Example 3.5, 4-{6-[(5-{[(1R,2S)-2-aminocyclohexyl]amino}-2-carbamoylpyridin-3-yl)amino]-2-methylpyridin-3-yl}benzoic acid]: the half-inhibitory concentration (IC50) was less than 10 nM. For the compound `Cc1nc(Nc2cc(N[C@@H]3CCCC[C@@H]3N)cnc2C(N)=O)ccc1-c1cccc(C(=O)O)c1` [Example 3.6, 3-{6-[(5-{[(1R,2S)-2-aminocyclohexyl]amino}-2-carbamoylpyridin-3-yl)amino]-2-methylpyridin-3-yl}benzoic acid], the IC50 was less than 10 nM.

For the compound `Cc1nc(Nc2cc(N[C@@H]3CCCC[C@@H]3N)cnc2C(N)=O)ccc1-c1ccc(CO)cc1` [Example 3.7, 5-{[(1R,2S)-2-aminocyclohexyl]amino}-3-({5-[4-(hydroxymethyl)phenyl]-6-methylpyridin-2-yl}amino)pyridine-2-carboxamide], the IC50 was less than 10 nM.

For orientation: IC50 means the midpoint of a concentration-inhibition curve.
